Earlier results on one compound are cited in article PMC3313018 (Cancer Chemotherapy and Pharmacology, 2011).

The subject of the data set is patients with advanced renal cell carcinoma. Particulars: cited from earlier work.

On to `CO[C@H]1C[C@@H]2CC[C@@H](C)[C@@](O)(O2)C(=O)C(=O)N2CCCC[C@H]2C(=O)O[C@H]([C@H](C)C[C@@H]2CC[C@@H](OCCO)[C@H](OC)C2)CC(=O)[C@H](C)/C=C(\C)[C@@H](O)[C@@H](OC)C(=O)[C@H](C)C[C@H](C)/C=C/C=C/C=C/1C` [everolimus], for which the Incidence of pneumonitis (Japanese patients with advanced renal cell carcinoma ref 18) is 27%. Further, for the setting “patients with renal cell carcinoma overall ref 18”, the “Incidence of pneumonitis, overall rate” value is reported as 11%.
